In patent publication US20110319484A1, “NEUROPROTECTIVE COMPOUNDS” (Parque Tecnologico de Ciencias de la Salud, priority 2009, published 2011):

Experiments:
SK-N-MC cells = experiment: Inhibition of camptothecin-induced apoptosis by flow cytometry (propidium iodide, sub-G1); assay type: cell-based, human; conditions: Homo sapiens, camptothecin 50 μM, 6 h, at 4 μg/ml, read-out: maximum inhibition of apoptosis relating to apoptosis caused by camptothecin (flow cytometry)
Description: To that end, the inhibition caused by the NST0005 compound of apoptosis caused by the treatment with camptothecin (Campt) was analyzed. The SK-N-MC cells, not exceeding 15 passages, were seeded on 6-well plates treated for adherent cells with a cell concentration of 8×10^5 cells/well; 2 wells of the plate were seeded for each condition of the assay.
After 24 h of cell incubation at 37° C. and 5% CO2 the cell treatments were performed with 2 ml of total volume for the following conditions: (i), control (culture medium); (ii), camptothecin [50 μM]; (iii) camptothecin [50 μM] and Z-VAD-fmk [50 μM] (Alexis), as positive control of inhibition; and (iv), 50 μM camptothecin with NST0005 at different concentrations [4, 10, 40 and 100 μg/ml].
The cells were incubated (at 37° C. and 5% CO2) with these treatments for 6 h, after which time they were pooled together with their culture medium and centrifuged at 300×g for 5 minutes. The medium was removed, a washing was performed with phosphate buffered saline (PBS) and they were fixed for 2 minutes with 500 μl of 70% ethanol at −20° C. […] After this time, they were analyzed by flow cytometry, comparing the fluorescence of the propidium iodine against the amount of DNA. The percentage of apoptosis was measured on the sub-G1 region of each of the conditions. […]

[1] = tested on: human neuroblastoma SK-N-MC cells; experiment: Protection against neuronal death induced by endoplasmic reticulum stress (tunicamycin), WST-1 test; assay type: cell-based; conditions: tunicamycin 20 μg/ml, 22 h, at 20 μg/ml, protection at 4, 10, 20 and 40 μg/ml
Description: To that end, an assay was performed on human neuroblastoma SK-N-MC cells in culture from the ATCC (HTB-10); in all cases strict rules of sterility were followed and the manipulation was performed in class II biological safety cabinets following European standard EN 12469. The cells were maintained in MEM culture medium supplemented with 1 mM sodium pyruvate, 2 mM L-glutamine, 0.1 mM non-essential amino acids, 0.05 mg/ml gentamicin and 10% fetal bovine serum.
The inhibition caused by the compound (1S,3R,7S,8S,8aR)-1,2,3,7,8,8a-hexahydro-3,7-dimethyl-8-[2-[(2R,4R)-tetrahydro-4-hydroxy-6-oxo-2H-pyran-2-yl]ethyl-1-naphthalenyl 2,2-dimethylpropanoate (NST0005) of cell death caused by treatment with tunicamycin (Tm), which generates endoplasmic reticulum stress by inhibition of N-glycosylation of proteins, which triggers cell death, was analyzed. […]
The cells were incubated (at 37° C. and 5% CO2) with these treatments for 22 h, after which time the WST-1 reagent (Roche) was added. The WST-1 Test, as has been previously mentioned, is based on the measurement of the metabolic activity; the metabolically active (live) cells reduce tetrazolium salt to formazan by means of the succinate-tetrazolium reductase system (of the mitochondrial respiratory chain) and the formazan which is formed can be detected colorimetrically since it has an absorbance of 440 nm. […]

mice = experiment: Antiepileptic effect against kainate administered to mice; assay type: in vivo, mice (FVB/NHan); conditions: KA 25 mg/kg i.p.
From the text: It is known that the administration of an excitotoxic substance to animals induces, in some cases, epileptic seizures and convulsions. As a result the inventors decided to investigate if the neuroprotective effect of (1S,3R,7S,8S,8aR)-1,2,3,7,8,8a-hexahydro-3,7-dimethyl-8-[2-[(2R,4R)-tetrahydro-4-hydroxy-6-oxo-2H-pyran-2-yl]ethyl-1-naphthalenyl 2,2-dimethylpropanoate (NST0005) was accompanied by an antiepileptic effect caused by an excitotoxic substance.
All the animals included during the experimental process were 12-week old males of the FVB/NHan strain. The experiments were carried out strictly following the Guidance on the Operation of Animals (Scientific Procedures, Act. 1986). The animals had their respective quarantine period and were treated with maximum precaution to minimize possible contaminations for inoculations and handling.
The animals were inoculated intraperitoneally with 25 mg/kg of kainate (KA) dissolved in PBS. Nine animals were pretreated at 24 and 0.5 hours before the inoculation with KA by means of intraperitoneal injection with PBS (PBS+KA administration regimen) and 9 were pretreated at 24 and 0.5 hours before the inoculation with KA by means of intraperitoneal injection with NST0005 at a dose of 50 mg/kg (NST0005+KA administration regimen). After the inoculation, the animals were individually housed in trays to monitor them. The maximum epilepsy level of the animals according to Racine's scale was recorded during the observation every ten minutes and for at least 120 minutes post-inoculation (m.p.i.).
Comparative studies of the epileptogenic phenomena between the treatment with PBS (PBS+KA) and with NST0005 (NST0005+KA) were subsequently conducted, the data of which are shown in Table 1.

[2] = NST0005 50 mg/kg i.p. at 24 and 0.5 h before KA, n=9

## C[C@H]1C=C2C=C[C@H](C)[C@H](CC[C@@H]3C[C@@H](O)CC(=O)O3)[C@H]2[C@@H](OC(=O)C(C)(C)C)C1 [NST0005]
SK-N-MC cells
  inhibition at 4 µg/mL: 17%
[1]
  maximum reduction of the percentage of cell death relating to death caused by Tunicamycin: 38%
mice; [2]
  Animals with convulsions (%): 33.3%
  Animals with status epilepticus (%): 22.2%
  Mortality (%): 11.1%
mice; NST0005 50 mg/kg i.p. pretreatment, at least 120 min observation
  epilepsy level in Racine's scale reached: < 3
mice; NST0005 50 mg/kg i.p. pretreatment, mean±SEM
  latency (time of onset of the first convulsions): 108.9 ± 5.9 min
